One molecule from the kinase profiling compilation of Christmann-Franck et al. (2016) can be followed below.

SMILES strings stand for the structures.

For orientation: residual activity means the signal under treatment as a percentage of the control signal.

The target in one test is DAPK2 (human) (UniProt Q9UIK4). In words: radiometric filter-binding kinase assay, Kinaseprofiler. The following applies: compound 10.0 µM; ATP 10 µM.
The target in the next test is MELK (human) (UniProt Q14680). Described as above. The settings on record: compound 10.0 µM; ATP 45 µM.
Chain of MELK (human) (Q14680 whole entry, looked up): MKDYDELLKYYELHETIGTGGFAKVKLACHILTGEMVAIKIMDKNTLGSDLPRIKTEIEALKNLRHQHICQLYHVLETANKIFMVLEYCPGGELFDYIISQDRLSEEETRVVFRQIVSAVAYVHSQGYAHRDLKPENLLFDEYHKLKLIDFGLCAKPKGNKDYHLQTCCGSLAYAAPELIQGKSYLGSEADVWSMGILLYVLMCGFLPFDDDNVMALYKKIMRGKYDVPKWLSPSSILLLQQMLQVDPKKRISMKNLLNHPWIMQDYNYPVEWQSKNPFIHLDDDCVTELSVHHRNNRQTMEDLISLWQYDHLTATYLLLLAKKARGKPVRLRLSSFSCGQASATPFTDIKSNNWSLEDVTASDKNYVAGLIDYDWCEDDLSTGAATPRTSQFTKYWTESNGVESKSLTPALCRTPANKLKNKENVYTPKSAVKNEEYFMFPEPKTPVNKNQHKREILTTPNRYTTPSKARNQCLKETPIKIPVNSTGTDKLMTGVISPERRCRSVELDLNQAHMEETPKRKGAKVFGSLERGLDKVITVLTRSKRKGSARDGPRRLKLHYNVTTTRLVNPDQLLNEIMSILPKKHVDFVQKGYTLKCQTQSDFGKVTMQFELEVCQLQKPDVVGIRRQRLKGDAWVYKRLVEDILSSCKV

Chain of DAPK2 (human) (Q9UIK4 whole entry, looked up): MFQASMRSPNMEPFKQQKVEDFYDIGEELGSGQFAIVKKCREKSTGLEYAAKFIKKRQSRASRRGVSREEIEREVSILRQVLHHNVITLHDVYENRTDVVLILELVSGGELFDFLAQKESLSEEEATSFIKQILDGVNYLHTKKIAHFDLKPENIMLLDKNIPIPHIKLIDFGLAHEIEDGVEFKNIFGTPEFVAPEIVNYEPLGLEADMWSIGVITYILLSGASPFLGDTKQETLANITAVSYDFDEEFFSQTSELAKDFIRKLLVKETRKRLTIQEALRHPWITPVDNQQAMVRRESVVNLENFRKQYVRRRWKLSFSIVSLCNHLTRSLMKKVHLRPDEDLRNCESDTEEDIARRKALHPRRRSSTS

On to `COC(=O)[C@]1(O)C[C@@H]2O[C@@]1(C)n1c3ccccc3c3c4c(c5c6ccccc6n2c5c31)C(=O)NC4`, for which the residual activity at DAPK2 (human) is -3%; at MELK (human) it was -1%.
